Like-named read-outs stand apart in the source and are kept apart here.
Experiments:
ORAI1 = target: T1, ORAI1 (Homo sapiens, UniProt Q96D31); experiment: Live cell Ca2+ imaging of G-GECO1.2-ORAI1 transfected Jurkat T cells; type: cell-based; details: 10 μM
T1 construct: host or cells: Jurkat T-lymphocytes (electroporation)
Protocol: 12.5 ∗ 10^6 Jurkat T–lymphocytes were pelleted at 400 to 450 ×g for 5 min at room temperature and pellets were dissolved in 500 μl RPMI 1640 medium (Gibco) without phenol red containing L-glutamine, supplemented with 7.5% (v/v) NCS. 30 μg plasmid-DNA (G-GECO1.2-ORAI1) was transferred into a 4 mm electroporation cuvette (Biozym, Austria) and the Jurkat T-lymphocytes were added. G-GECO1.2-ORAI1 was a gift from Michael Cahalan, USA (Addgene plasmid # 73562). After an incubation of 5 min at 37 °C, cells were electroporated with 960 μF and 240 V (τ: […]). […]
17 to 22 h after electroporation, 5 ∗ 10^4 cells were pelleted at 400–450 ×g for 5 min at room temperature and cell pellets were dissolved in 50 μl nominal Ca^2+ free buffer. […] The fluorophore was excited at 488 nm every 2 s for 30 min and fluorescence was measured at 520 nm using Volocity (Version 6.3, Perkin Elmer).
Using ImageJ (Version 1.51 k, National Institutes of Health, USA) the pictures were analyzed for mean fluorescence in the outer ring of Jurkat T-lymphocytes employing ring-shaped regions of interest (ROIs). […] The mean background fluorescence values were subtracted from the signal in every image. For quantitative analysis, fluorescence intensities were normalized to the first fluorescence intensity (F/F0).

[1] = system: SOCE in human Jurkat T cells; experiment: cells; type: cell-based; details: Ca2+ free/Ca2+ re-addition protocol, plateau 425-475 s after re-addition of 1 mM Ca2+
Protocol: Jurkat T-lymphocytes, primary human CD4^+ T cells and H1299 cells were pelleted at 450 ×g for 5 min, rat TMBP at 300 ×g for 8 min at room temperature and were resuspended in 1 ml of either standard JMP medium (Jurkat, H1299 and human CD4^+ T cells) or standard DMEM based medium containing 10% fetal bovine serum (FBS) (v/v) (TMBP cells). Resting TMBP cells (day 5–7 after re-stimulation) after the second to fifth re-stimulation were thawed from liquid nitrogen 12 to 40 h prior to Fura2-loading. After pre-incubation for 5 min at 37 °C, cells were incubated with 4 μM Fura2-AM for 15 min at 37 °C. After addition of the dye, cells were kept in the dark. Afterwards, cells and the dye were diluted by addition of 4 ml standard medium and incubated for another 15 min. Cells were washed twice in Ca^2+ buffer (140 mM NaCl, 5 mM KCl, 1 mM MgSO4, 1 mM CaCl2, 1 mM NaH2PO4, 20 mM HEPES, 5.5 mM glucose; pH 7.4 (NaOH), sterile filtered) and were diluted to a concentration of 2*10^6 cells/ml. Subsequently, cells were kept at room temperature for 20 min for de-esterification before the start of the first measurement.
In experiments using a Ca^2+ free/Ca^2+ re-addition protocol, cells were pelleted as described for Fura2 loading and Ca^2+ buffer was exchanged by 1 ml nominal Ca^2+ free buffer (140 mM NaCl, 5 mM KCl, 1 mM MgSO4, 1 mM NaH2PO4, 20 mM HEPES, 5.5 mM glucose; pH 7.4 (NaOH), sterile filtered) immediately before starting the measurement. The measurement was controlled by FL Solutions (Version 4.1, Hitachi High-Technologies Corporation). Fura2 was alternatively excited every 2 s at 340 ± 5 nm and 380 ± 5 nm, each 400 ms apart.
Finally, every measurement was calibrated using 0.1% (v/v) Triton X-100 to obtain a maximal ratio and 4 mM EGTA and 30 mM Tris to obtain a minimal ratio.
R is the ratio between F340 and F380. Rmin and Rmax are the minimal and maximal ratio, respectively, obtained by calibration. F380 min and F380 max are the minimal and maximal fluorescence intensity at 380 nm EX during the calibration. Finally, artefacts due to compound additions that usually could easily be identified and lasted about 8 s were deleted from the tracings using FL Solutions (Version 4.1, Hitachi High-Technologies Corporation). The fluorescence intensities of deleted data points were interpolated from those just before and after the deleted time points.
Estradiol, 2ME2 and 2ME2 derivatives were dissolved in DMSO at a concentration of 50 mM and stored at −20 °C for up to 6 months. For concentration-response curves, stock solution was freshly diluted with DMSO to obtain the same DMSO concentration of 0.2% (v/v) for all conditions.
The compound concentrations were then log transformed. Finally, the data were fitted to a corresponding nonlinear fit of variable slope using Prism 6 (GraphPad Software, USA).

[2] = system: Mn2+ entry into Jurkat T cells; experiment: Mn2+ quenching of Fura2 after store depletion in Jurkat T cells; type: cell-based, human; details: store depletion by thapsigargin, 10 μM
Protocol: Mn^2+ quenching of Fura2 was used to analyze influx of divalent cations into Jurkat T cells. Like for Ca^2+ measurements, 10^6 loaded Jurkat T-lymphocytes were pelleted and Ca^2+ buffer was exchanged for nominal Ca^2+ free buffer (see above). Instead of Ca^2+, Mn^2+ was added 1220 s after the start of the measurement. To investigate Mn^2+ quenching independently of any effects of Ca^2+, Fura2 was excited at its isosbestic point, which was experimentally determined to be 357 nm. The emission wavelength was set to 495 nm. In contrast to the Ca^2+ measurement experiments, these measurements were not calibrated.
For quantitative analysis, the velocity of quenching was calculated as the initial slope. After Mn^2+ addition, there was a very fast drop in Fura2 fluorescence in all experiments. This drop lasted for about 10 s and was probably due to quenching of extracellular Fura2. […]
y0 is the fluorescence at the start of the decay, P is the theoretical fluorescence at the end of the decay at infinite times, K is the rate constant, and x is the time. […]
The fluorescence before Mn^2+ addition was fitted to a straight line using the following equation:(4) y’=m·x+c
m is the slope, x is the time and c is the y-intercept. […] So the initial slope (si) after Mn^2+ addition was calculated using the following equation:(5) si=(y0–P)*(-K)*e(-K*1230s)–m

T1 sequence (Q96D31 whole entry): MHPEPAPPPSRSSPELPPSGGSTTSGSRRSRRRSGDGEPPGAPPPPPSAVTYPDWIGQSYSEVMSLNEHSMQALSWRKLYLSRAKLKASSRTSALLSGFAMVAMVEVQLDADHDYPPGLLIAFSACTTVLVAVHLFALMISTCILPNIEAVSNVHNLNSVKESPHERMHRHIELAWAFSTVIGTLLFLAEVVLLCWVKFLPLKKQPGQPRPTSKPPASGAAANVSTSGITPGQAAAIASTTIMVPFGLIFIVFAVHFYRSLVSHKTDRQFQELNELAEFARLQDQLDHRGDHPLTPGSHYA

With CCc1cc2c(cc1OS(N)(=O)=O)CC[C@@H]1[C@@H]2CC[C@]2(C)[C@@H](CC#N)CC[C@@H]12 [STX564, 2-ethyl-3-sulfamoyloxy-17β-cyanomethylestra-1,3,5(10)-triene] the “SOCE by ORAI1 (G-GECO1.2-ORAI1 fluorescence)” value (ORAI1) was “almost completely diminished”, the IC50 ([1]; Homo sapiens, Jurkat, read-out: IC50 of SOCE inhibition, Jurkat T cells) was 1200 nM and the IC50 ([1]; read-out: IC50 of SOCE inhibition, Jurkat T cells) was about 1000 nM. For the same compound, the “antagonism of Mn2+ entry (Mn2+ quenching of Fura2)” value [2] was “almost fully”.

From publication PMC8062851, “2-Methoxyestradiol and its derivatives inhibit store-operated Ca^2+ entry in T cells: Identification of a new and potent inhibitor” (Biochimica et Biophysica Acta. Molecular Cell Research, 2021)
